Data published in patent US20120157433A1, “Heteroaryl Compounds as Kinase Inhibitors” (priority 2009, published 2012).

Target: Cdk9/cyclinT1 (Homo sapiens, UniProt P50750)
Test: Cdk9/cyclinT1 kinase assay (IMAP or Alpha Screen protocol)
Settings: not given

Cdk9/cyclinT1, sequence (P50750 whole entry): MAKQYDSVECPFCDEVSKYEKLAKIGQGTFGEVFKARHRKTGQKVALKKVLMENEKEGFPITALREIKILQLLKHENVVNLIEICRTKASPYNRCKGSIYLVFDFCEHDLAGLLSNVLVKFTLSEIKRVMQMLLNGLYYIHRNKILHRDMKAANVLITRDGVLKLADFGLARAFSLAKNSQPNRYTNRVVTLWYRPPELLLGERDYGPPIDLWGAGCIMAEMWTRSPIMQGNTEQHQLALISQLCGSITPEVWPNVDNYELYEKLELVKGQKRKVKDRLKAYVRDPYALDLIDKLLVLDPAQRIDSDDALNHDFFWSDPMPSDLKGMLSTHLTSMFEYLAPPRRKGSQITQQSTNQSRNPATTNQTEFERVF
Cdk9/cyclinT1, sequence (O60563 whole entry partner): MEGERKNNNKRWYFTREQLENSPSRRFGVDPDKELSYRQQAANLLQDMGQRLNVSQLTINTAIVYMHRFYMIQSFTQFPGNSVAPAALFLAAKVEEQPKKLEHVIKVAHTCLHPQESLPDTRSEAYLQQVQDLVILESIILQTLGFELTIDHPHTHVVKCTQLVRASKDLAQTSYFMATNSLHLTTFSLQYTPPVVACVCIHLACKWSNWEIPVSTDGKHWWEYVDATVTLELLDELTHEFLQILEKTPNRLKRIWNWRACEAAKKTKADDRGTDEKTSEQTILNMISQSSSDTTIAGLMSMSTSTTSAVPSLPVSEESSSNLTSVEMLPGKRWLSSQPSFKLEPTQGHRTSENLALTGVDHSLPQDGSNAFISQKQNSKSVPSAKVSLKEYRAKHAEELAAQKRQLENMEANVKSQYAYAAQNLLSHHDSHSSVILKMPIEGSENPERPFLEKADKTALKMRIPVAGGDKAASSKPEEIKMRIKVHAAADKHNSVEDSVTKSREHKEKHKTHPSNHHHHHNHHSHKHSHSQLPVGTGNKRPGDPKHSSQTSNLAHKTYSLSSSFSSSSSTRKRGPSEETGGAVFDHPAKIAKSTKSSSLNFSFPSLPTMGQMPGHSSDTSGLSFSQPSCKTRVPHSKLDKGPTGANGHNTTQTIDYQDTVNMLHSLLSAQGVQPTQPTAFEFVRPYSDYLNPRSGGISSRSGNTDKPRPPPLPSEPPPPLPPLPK

| IC50 [nM] | SMILES |
| --- | --- |
| 20 | O=C(Nc1cc(-c2ccccc2)c(Cl)cn1)[C@@H]1CCCNC1 [Example 1, (R)—N-(5-chloro-4-phenylpyridin-2-yl)piperidine-3-carboxamide] |
| 10 | O=C(Nc1cc(-c2cccc(F)c2)c(Cl)cn1)[C@@H]1CCCNC1 [Example 2, (R)-Piperidine-3-carboxylic acid [5-chloro-4-(3-fluoro-phenyl)-pyridin-2-yl]-amide] |
| < 8 | COc1ccccc1-c1cc(NC(=O)[C@@H]2CCCNC2)ncc1Cl [Example 3, (R)-Piperidine-3-carboxylic acid [5-chloro-4-(2-methoxy-phenyl)-pyridin-2-yl]-amide] |
| < 8 | COc1ccc(F)cc1-c1cc(NC(=O)[C@@H]2CCCNC2)ncc1Cl [Example 4, (R)—N-(5-Chloro-4-(5-fluoro-2-methoxyphenyl)pyridin-2-yl)piperidine-3-carboxamide] |
| 2 | CC(C)Oc1ccc(F)cc1-c1cc(NC(=O)[C@@H]2CCCNC2)ncc1Cl [Example 5, (R)-Piperidine-3-carboxylic acid [5-chloro-4-(5-fluoro-2-isopropoxy-phenyl)-pyridin-2-yl]-amide] |
| < 8 | O=C(Nc1cc(-c2cccc(OCc3cccc(F)c3)c2)c(Cl)cn1)[C@@H]1CCCNC1 [Example 6, (R)-Piperidine-3-carboxylic acid {5-chloro-4-[3-(3-fluoro-benzyloxy)-phenyl]-pyridin-2-yl}-amide] |
| < 8 | O=C(Nc1cc(-c2cccc(NCC3CCOCC3)c2)c(Cl)cn1)[C@@H]1CCCNC1 [Example 7, (R)—N-(5-chloro-4-(3-(((tetrahydro-2H-pyran-4-yl)methyl)amino)phenyl)pyridin-2-yl)piperidine-3-carboxamide] |
| 23 | O=C(Nc1cc(-c2cccc(NCC3CCOCC3)c2)c(Cl)cn1)[C@H]1CCCNC1 [Example 8, (S)-Piperidine-3-carboxylic acid (5-chloro-4-{3-[(tetrahydro-pyran-4-ylmethyl)-amino]-phenyl}-pyridin-2-yl)-amide] |
| < 8 | O=C(Nc1cc(-c2cc(F)cc(NCC3CCOCC3)c2)c(Cl)cn1)[C@@H]1CCCNC1 [Example 9, (R)—N-(5-Chloro-4-(3-fluoro-5-(((tetrahydro-2H-pyran-4-yl)-methyl)amino)phenyl)-pyridin-2-yl)piperidine-3-carboxamide] |
| 11 | CC(C)(C)OC(=O)N1CCC[C@@H](C(=O)Nc2cc(-c3cc(F)cc(NCC4CCOCC4)c3)c(Cl)cn2)C1 [Example 10, (R)-3-(5-Chloro-4-{3-fluoro-5-[(tetrahydro-pyran-4-ylmethyl)-amino]-phenyl}-pyridin-2-ylcarbamoyl)-piperidine-1-carboxylic acid tert-butyl ester] |
| 11 | O=C(Nc1cc(-c2cc(F)cc(NCC3CCOCC3)c2)c(Cl)cn1)[C@H]1CCCNC1 [Example 11, (S)-Piperidine-3-carboxylic acid (5-chloro-4-{3-fluoro-5-[(tetrahydro-pyran-4-ylmethyl)-amino]-phenyl}-pyridin-2-yl)-amide] |
| < 8 | O=C(Nc1cc(-c2cc(NCC3CCOCC3)ccc2F)c(Cl)cn1)[C@@H]1CCCNC1 [Example 12, (R)-Piperidine-3-carboxylic acid (5-chloro-4-{2-fluoro-5-[(tetrahydro-pyran-4-ylmethyl)-amino]-phenyl}-pyridin-2-yl)-amide] |
| < 8 | O=C(Nc1cc(-c2ccc(Cl)c(NCC3CCOCC3)c2)c(Cl)cn1)[C@@H]1CCCNC1 [Example 13, (R)—N-(5-Chloro-4-(4-chloro-3-(((tetrahydro-2H-pyran-4-yl)methyl)amino)phenyl)-pyridin-2-yl)piperidine-3-carboxamide] |
| < 8 | O=C(Nc1cc(-c2cc(F)cc(NCC3CCOCC3)c2)c(Cl)cn1)C1CNCCO1 (stereo not shown) [Example 14, Morpholine-2-carboxylic acid (5-chloro-4-{3-fluoro-5-[(tetrahydro-pyran-4-ylmethyl)-amino]-phenyl}-pyridin-2-yl)-amide] |
| 16 | O=C(Nc1cc(-c2cc(NCC3CCOCC3)ccc2F)c(Cl)cn1)[C@H]1CNCCO1 [Example 15, (R)-Morpholine-2-carboxylic acid (5-chloro-4-{2-fluoro-5-[(tetrahydro-pyran-4-ylmethyl)-amino]-phenyl}-pyridin-2-yl)-amide] |

System: neointima formation
Test: not given
Settings: rats; cited from earlier work

| SMILES | inhibition of neointima formation |
| --- | --- |
| COc1ccc(CNc2nc(N(CCO)CCO)nc3c2ncn3C(C)C)cc1 [CVT-313] | greater than 80% |
